# According to patent publication US6984656B2, “Core modified porphyrins” (priority 2001, dated 2006):
# pEC50: −log10 of the molar value. Like-named read-outs stand apart in the source and are kept apart here.
# Legend:
# Colo-26 cells = test: Dark and light-induced toxicity toward Colo-26 cells in culture; type: cell-based, murine; conditions: for pEC50: 4 J cm^−2 of 590-800 nm light
# Method: In order to compare relative phototoxicity, the core-modified porphyrins of Table 1 were evaluated in culture for dark and light-induced toxicities toward Colo-26 cells, a murine colon carcinoma cell line.
# [1] = Rate of photobleaching in phosphate-buffered saline; type: physicochemical; conditions: PBS; 570-750 nm light at 500 mW cm^−2; constant initial absorbance
# Description: One limitation of PDT dosimetry is the rate of photobleaching of the photosensitizer, which can be problematic with Photofrin® and even more problematic with the bacteriochlorins and the chlorins (such as HPPH).
# [2] = Single-photon quantum yield for fluorescence; type: physicochemical; conditions: for emissiveness relative to dithiaporphyrin analogue: 7 vs 6, 10 vs DH-82; for quantum yield for fluorescence φF (± σ): one-photon, standard TPPS4 in water
# Description: In vivo fluorescence techniques have had significant impact on the development of PDT with respect to the pharmacokinetics of sensitizers and to PDT dosimetry. Photofrin® has been used in fluorescent diagnostics and the fluorescence of TPPS4 has been extensively studied. […] The quantum yield standard used in these studies was a freshly prepared solution of TPPS4 (φF =0.12) dissolved in water.
# [3] = Quantum yield for the generation of singlet oxygen; type: physicochemical; conditions: aqueous solution
# [4] = tested on: R3230AC rat mammary adenocarcinoma cells; test: Phototoxicity toward R3230AC cells in culture; type: cell-based; conditions: 10 μM, 24 h; 570-800 nm light, 0.9 J cm^−2; 24 h post-irradiation
# Method: Similar results were obtained with R3230AC rat mammary adenocarcinoma cells in vitro. […] Light-treated cells and dark controls were incubated for 24 h and cell survival was determined. The surviving fraction, 24 h post-irradiation, is shown graphically in FIG. 4c.
# [5] = 24 h incubation in dark, survival 24 h later, read-out: effective concentration to give 50% cell-kill of Colo-26 cells in vitro (EC50)
rate of photobleaching (kbleach) [1],SMILES,pEC50 (Colo-26 cells; read-out: EC50 against Colo-26 cells),"EC50 fold lower than for Photofrin® (Colo-26 cells; Colo-26 cells, 590-800 nm light)",pEC50 (Colo-26 cells; [5]),emissiveness relative to dithiaporphyrin analogue [2],quantum yield for fluorescence φF (± σ) [2],quantum yield for the generation of singlet oxygen φ(^1O2) [3],"phototoxicity relative to Photofrin® toward R3230AC cells (surviving fraction, FIG. 4c) [4]"
–,"CCCCCCOC(C)c1c(C)c2cc3nc(c4c5[nH]c(cc6nc(cc1[nH]2)C(C)=C6CC)c(C)c5C(=O)C4)[C@@H](CCC(=O)O)[C@@H]3C (some centres unmarked) [HPPH, reference compound]",6.52,30 fold,–,–,–,–,–
0.13 ± 0.02 × 10^4 s^−1,O=S(=O)([O-])c1ccc(-c2c3nc(c(-c4ccc(C(F)(F)F)cc4)c4ccc(s4)c(-c4ccc(C(F)(F)F)cc4)c4nc(c(-c5ccc(S(=O)(=O)[O-])cc5)c5ccc2s5)C=C4)C=C3)cc1.[Na+].[Na+] [Compound 13],–,–,< 4.00,–,–,–,–
–,O=S(=O)(O)c1ccc(-c2c3nc(c(-c4ccc(S(=O)(=O)O)cc4)c4ccc([se]4)c(-c4ccc(S(=O)(=O)O)cc4)c4nc(c(-c5ccc(S(=O)(=O)O)cc5)c5ccc2[se]5)C=C4)C=C3)cc1 [Compound 7],–,–,< 4.00,10%,8.9 (± 0.4) × 10^−4,–,–
0.18 ± 0.02 × 10^4 s^−1,O=C([O-])COc1ccc(-c2c3nc(c(-c4ccccc4)c4ccc(s4)c(-c4ccccc4)c4nc(c(-c5ccc(OCC(=O)[O-])cc5)c5ccc2s5)C=C4)C=C3)cc1.[Na+].[Na+] [Compound 15],–,–,6.82,–,–,–,–
–,O=S(=O)([O-])c1ccc(-c2c3nc(c(-c4ccc(F)cc4)c4ccc(s4)c(-c4ccc(F)cc4)c4nc(c(-c5ccc(S(=O)(=O)[O-])cc5)c5ccc2[se]5)C=C4)C=C3)cc1.[Na+].[Na+] [Compound 10],–,–,5.68,2%,1.4 (± 0.1) × 10^−4,0.65 ± 0.01,–
–,O=S(=O)([O-])c1ccc(-c2c3nc(c(-c4ccc(F)cc4)c4ccc([se]4)c(-c4ccc(F)cc4)c4nc(c(-c5ccc(S(=O)(=O)[O-])cc5)c5ccc2s5)C=C4)C=C3)cc1.[Na+].[Na+] [Compound 11],–,–,5.92,–,–,0.64 ± 0.01,–

SMILES,rate of photobleaching (kbleach) [1],pEC50 (Colo-26 cells; read-out: EC50 against Colo-26 cells),"EC50 fold lower than for Photofrin® (Colo-26 cells; Colo-26 cells, 590-800 nm light)",pEC50 (Colo-26 cells; [5]),emissiveness relative to dithiaporphyrin analogue [2],quantum yield for fluorescence φF (± σ) [2],quantum yield for the generation of singlet oxygen φ(^1O2) [3],"phototoxicity relative to Photofrin® toward R3230AC cells (surviving fraction, FIG. 4c) [4]"
CN(C)c1ccc(-c2c3nc(c(-c4ccc(S(=O)(=O)[O-])cc4)c4ccc(s4)c(-c4ccc(S(=O)(=O)[O-])cc4)c4nc(c(-c5ccc(N(C)C)cc5)c5ccc2s5)C=C4)C=C3)cc1.[Na+].[Na+] [Compound 14],0.77 ± 0.04 × 10^4 s^−1,–,–,6.22,–,<10^−4,0.60 ± 0.02,more phototoxic than Photofrin®
